For the assay, the system named is CSF leukocytosis. Put plainly: Rat meningitis model (LOS): CSF leukocytosis. The format is in vivo, female Wistar rats. As to conditions: 600 nmol i.v., 4 hours after LOS. The procedure:
The experiments were performed according to established protocols (Wispelway et al., 1988, J. Clin. Invest., 82: 1339-1346). Purified Haemophilus influenzae type b strain DL42 lipooligosaccharide (LOS) was prepared for inoculation by sonication for 30 minutes, dilution to the desired concentration (20 ng/50 μl) in normal saline or PBS, and sonication for an additional 15 to 30 minutes just prior to use.
Briefly, anesthetized female Wistar rats were placed under a micromanipulator and inoculated intracisternally with a 25 gauge needle. After removal of 50 μl of CSF (without visible blood contamination), rats were inoculated intracisternally with 50 μl (20 ng) of LOS using a 1 ml syringe with a 25 gauge needle. Ten to fifteen minutes after inoculation with LOS, the rats were treated by intravenous administration of the test substance: a solution of an FHA peptide in PBS, a solution of a control peptide in PBS, or an equal volume of PBS alone.
Three hours after LOS inoculation, 5 μCi of ^125 I-radiolabelled albumin in 50 μl normal saline was administered intravenously. One hour later, CSF was collected via intracisternal puncture and blood samples were collected via intracardiac puncture. CSF leukocytosis was determined by manually counting white blood cells using a hemacytometer, and blood-brain barrier permeability was determined as the percent of radioactivity in whole blood that was present in the CSF. Blood samples were obtained immediately prior to inoculation, immediately prior to treatment, and at 4 hours post-inoculation for determination of peripheral white blood cell concentrations.

As to Ac-ETKEVDG-NH2 [Acetyl/Amide-FHA II], the “Leukocytosis (CSF)” value is “approximately 10,000 cells/ml”. Moreover, the “Leukocytosis (CSF)” value (listed as ac/am FHA II) is listed as 10,500 ± 8523 cells/ml.

(Values after patent publication US5792457A, “Antibody recognizing endothelial cell ligand for leukocyte CR3” (priority 1995, dated 1998).)
